Patent publication US20250129070A1, “BIFUNCTIONAL ANDROGEN RECEPTOR COMPOUNDS” (priority 2023, published 2025)
pEC50, pIC50: −log10 of the molar value.

What was measured:
VCaP cells = assay: VCaP growth inhibition assay; assay type: cell-based; conditions: 30 pM R1881, 9 days, CTG
Method in brief: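 Growth read by CTG luminescence after 9-day exposure to compound (final 100 nM–10 fM, 1:5 steps) plus 30 pM R1881, in phenol red-free DMEM with 5% CSS. Cells pre-incubated 72 h before dosing; IC50 by nonlinear 4-parameter regression.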

AR / CBP ternary complex = assay: Ternary complex formation assay (sandwich ELISA, AR capture / CBP detection) in VCaP cell lysates; assay type: cell-based; conditions: 1.5 hours treatment, sandwich ELISA (AR capture, CBP or p300 detection)
Method in brief: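 Anti-AR (AR 441)-coated plates capture AR from lysates of VCaP cells grown ≥3 days at 50K/well in 5% charcoal-stripped FBS, dosed with bifunctional for 1.5 h and lysed 30 min at 4 °C. Co-captured CBP/p300 is probed with rabbit mAb and HRP anti-rabbit, then QuantaRed fluorescence (570/585) is read at 0, 5 and 15 min.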

Compound | pIC50 (VCaP cells) | pEC50 (AR / CBP ternary complex)
CC(=O)N1CCc2c(c(N3CCCc4cc(-c5cnn(C)c5)c(C(F)F)cc43)nn2CCOC2CCN(c3ncc(C(=O)NC4C(C)(C)C(Oc5ccc(C#N)c(Cl)c5)C4(C)C)cn3)CC2)C1 (stereo not drawn) [Compound 51, 2-[4-[2-[5-acetyl-3-[7-(difluoromethyl)-6-(1-methylpyrazol-4-yl)-3,4-dihydro-2H-quinolin-1-yl]-6,7-dihydro-4H-pyrazolo[4,3-c]pyridin-1-yl]ethoxy]-1-piperidyl]-N-[3-(3-chloro-4-cyano-phenoxy)-2,2,4,4-tetramethyl-cyclobutyl]pyrimidine-5-carboxamide] | 9.00 to 10.00 | > 9.00
CC(=O)N1CCc2c(c(-c3cccc4cc(-c5cnn(CC6CCN(c7ncc(C(=O)NC8C(C)(C)C(Oc9ccc(C#N)c(Cl)c9)C8(C)C)cn7)CC6)c5)ncc34)nn2C)C1 (stereo not drawn) [Compound 215, 2-[4-[[4-[8-(5-acetyl-1-methyl-6,7-dihydro-4H-pyrazolo[4,3-c]pyridin-3-yl)-3-isoquinolyl]pyrazol-1-yl]methyl]-1-piperidyl]-N-[3-(3-chloro-4-cyano-phenoxy)-2,2,4,4-tetramethyl-cyclobutyl]pyrimidine-5-carboxamide] | 9.00 to 10.00 | > 9.00
COc1cc(OC2C(C)(C)C(NC(=O)c3ccc(N4CCN(C5CN(c6ccc(-c7cc8cccc(-c9nn(C%10CCOCC%10)c%10c9CN(C(C)=O)CC%10)c8cn7)cn6)C5)CC4)cc3)C2(C)C)ccc1C#N (stereo not drawn) [Compound 322, 4-[4-[1-[5-[8-(5-acetyl-1-tetrahydropyran-4-yl-6,7-dihydro-4H-pyrazolo[4,3-c]pyridin-3-yl)-3-isoquinolyl]-2-pyridyl]azetidin-3-yl]piperazin-1-yl]-N-[3-(4-cyano-3-methoxy-phenoxy)-2,2,4,4-tetramethyl-cyclobutyl]benzamide] | ≥ 10.00 | > 9.00
COc1cc(OC2C(C)(C)C(NC(=O)c3ccc(N4CC5(CC(N6CCC(n7nc(N8CCCc9cc(-c%10cnn(C)c%10)c(C(F)F)cc98)c8c7CCN(C(C)=O)C8)CC6)C5)C4)cc3)C2(C)C)ccc1C#N (stereo not drawn) [Compound 349, 4-[6-[4-[5-acetyl-3-[7-(difluoromethyl)-6-(1-methylpyrazol-4-yl)-3,4-dihydro-2H-quinolin-1-yl]-6,7-dihydro-4H-pyrazolo[4,3-c]pyridin-1-yl]-1-piperidyl]-2-azaspiro[3.3]heptan-2-yl]-N-[3-(4-cyano-3-methoxy-phenoxy)-2,2,4,4-tetramethyl-cyclobutyl]benzamide] | ≥ 10.00 | > 9.00
CC(=O)N1CCc2c(c(-c3cccc4cc(-c5cnn(C6CCN(C7CCN(c8ncc(C(=O)NC9C(C)(C)C(Oc%10ccc(C#N)c(Cl)c%10)C9(C)C)cn8)CC7)C6)c5)ncc34)nn2C2CCOCC2)C1 (stereo not drawn) [Compound 222, 2-[4-[3-[4-[8-(5-acetyl-1-tetrahydropyran-4-yl-6,7-dihydro-4H-pyrazolo[4,3-c]pyridin-3-yl)-3-isoquinolyl]pyrazol-1-yl]pyrrolidin-1-yl]-1-piperidyl]-N-[3-(3-chloro-4-cyano-phenoxy)-2,2,4,4-tetramethyl-cyclobutyl]pyrimidine-5-carboxamide] | 9.00 to 10.00 | > 9.00
CC(=O)N1CCc2c(c(Nc3ccc(-c4cnn(C)c4)cc3F)nn2C2CN(CC3CCN(c4ncc(C(=O)NC5C(C)(C)C(Oc6ccc(C#N)c(Cl)c6)C5(C)C)cn4)CC3)C2)C1 (stereo not drawn) [Compound 4, 2-[4-[[3-[5-acetyl-3-[2-fluoro-4-(1-methylpyrazol-4-yl)anilino]-6,7-dihydro-4H-pyrazolo[4,3-c]pyridin-1-yl]azetidin-1-yl]methyl]-1-piperidyl]-N-[3-(3-chloro-4-cyano-phenoxy)-2,2,4,4-tetramethyl-cyclobutyl]pyrimidine-5-carboxamide] | < 7.00 | < 7.00
CC(=O)N1CCc2c(c(N3CCCc4cc(-c5cnn(C)c5)c(C(F)F)cc43)nn2C2CN(CC3CCN(c4ncc(C(=O)NC5C(C)(C)C(Oc6ccc(C#N)c(Cl)c6)C5(C)C)cn4)CC3)C2)C1 (stereo not drawn) [Compound 10, 2-[4-[[3-[5-acetyl-3-[7-(difluoromethyl)-6-(1-methylpyrazol-4-yl)-3,4-dihydro-2H-quinolin-1-yl]-6,7-dihydro-4H-pyrazolo[4,3-c]pyridin-1-yl]azetidin-1-yl]methyl]-1-piperidyl]-N-[3-(3-chloro-4-cyano-phenoxy)-2,2,4,4-tetramethyl-cyclobutyl]pyrimidine-5-carboxamide] | 7.00 to 9.00 | < 7.00
CC(=O)N1CCc2c(c(N3CCCc4cc(-c5cnn(C)c5)c(C(F)F)cc43)nn2C2CCC(C3CCC4(CC3)CN(c3ncc(C(=O)NC5C(C)(C)C(Oc6ccc(C#N)c(Cl)c6)C5(C)C)cn3)C4)CC2)C1 (stereo not drawn) [Compound 377, 2-[7-[4-[5-acetyl-3-[7-(difluoromethyl)-6-(1-methylpyrazol-4-yl)-3,4-dihydro-2H-quinolin-1-yl]-6,7-dihydro-4H-pyrazolo[4,3-c]pyridin-1-yl]cyclohexyl]-2-azaspiro[3.5]nonan-2-yl]-N-[3-(3-chloro-4-cyano-phenoxy)-2,2,4,4-tetramethyl-cyclobutyl]pyrimidine-5-carboxamide] | 7.00 to 9.00 | 8.00 to 9.00
Cn1cc(-c2cc3cccc(-c4cc(C5=CCN(CC6CCN(c7ncc(C(=O)NC8C(C)(C)C(Oc9ccc(C#N)c(Cl)c9)C8(C)C)cn7)CC6)CC5)c5c(c4)n(C)c(=O)n5C)c3cn2)cn1 (stereo not drawn) [Compound 243, N-[3-(3-chloro-4-cyano-phenoxy)-2,2,4,4-tetramethyl-cyclobutyl]-2-[4-[[4-[1,3-dimethyl-6-[3-(1-methylpyrazol-4-yl)-8-isoquinolyl]-2-oxo-benzimidazol-4-yl]-3,6-dihydro-2H-pyridin-1-yl]methyl]-1-piperidyl]pyrimidine-5-carboxamide] | 9.00 to 10.00 | < 7.00
CC(=O)N1CCc2c(c(N3CCCc4cc(C#N)ccc43)nn2C2CCN(CC3CCN(c4ncc(C(=O)NC5C(C)(C)C(Oc6ccc(C#N)c(Cl)c6)C5(C)C)cn4)CC3)CC2)C1 (stereo not drawn) [Compound 155, 2-[4-[[4-[5-acetyl-3-(6-cyano-3,4-dihydro-2H-quinolin-1-yl)-6,7-dihydro-4H-pyrazolo[4,3-c]pyridin-1-yl]-1-piperidyl]methyl]-1-piperidyl]-N-[3-(3-chloro-4-cyano-phenoxy)-2,2,4,4-tetramethyl-cyclobutyl]pyrimidine-5-carboxamide] | 9.00 to 10.00 | > 9.00
CC(=O)N1CCc2c(c(Nc3ccc(-c4cnn(C)c4)cc3F)nn2C2CCN(CC3CCN(c4ncc(C(=O)NC5C(C)(C)C(Oc6ccc(C#N)c(Cl)c6)C5(C)C)cn4)CC3)CC2)C1 (stereo not drawn) [Compound 186, 2-[4-[[4-[5-acetyl-3-[2-fluoro-4-(1-methylpyrazol-4-yl)anilino]-6,7-dihydro-4H-pyrazolo[4,3-c]pyridin-1-yl]-1-piperidyl]methyl]-1-piperidyl]-N-[3-(3-chloro-4-cyano-phenoxy)-2,2,4,4-tetramethyl-cyclobutyl]pyrimidine-5-carboxamide] | 9.00 to 10.00 | > 9.00
CC(=O)N1CCc2c(c(N3CCCc4cc(-c5cnn(C)c5)c(C(F)F)cc43)nn2C2CCN(C3CN(c4ncc(C(=O)NC5C(C)(C)C(Oc6ccc(C#N)c(Cl)c6)C5(C)C)cn4)C3)CC2)C1 (stereo not drawn) [Compound 333, 2-[3-[4-[5-acetyl-3-[7-(difluoromethyl)-6-(1-methylpyrazol-4-yl)-3,4-dihydro-2H-quinolin-1-yl]-6,7-dihydro-4H-pyrazolo[4,3-c]pyridin-1-yl]-1-piperidyl]azetidin-1-yl]-N-[3-(3-chloro-4-cyano-phenoxy)-2,2,4,4-tetramethyl-cyclobutyl]pyrimidine-5-carboxamide] | ≥ 10.00 | < 7.00
CC(=O)N1CCc2c(c(N3CCCc4cc(-c5cnn(C)c5)c(C(F)F)cc43)nn2C2CCN(CC3C(C)CN(c4ncc(C(=O)NC5C(C)(C)C(Oc6ccc(C#N)c(Cl)c6C)C5(C)C)cn4)CC3C)CC2)C1 (stereo not drawn) [Compound 460, 2-[4-[[4-[5-acetyl-3-[7-(difluoromethyl)-6-(1-methylpyrazol-4-yl)-3,4-dihydro-2H-quinolin-1-yl]-6,7-dihydro-4H-pyrazolo[4,3-c]pyridin-1-yl]-1-piperidyl]methyl]-3,5-dimethyl-1-piperidyl]-N-[3-(3-chloro-4-cyano-2-methyl-phenoxy)-2,2,4,4-tetramethyl-cyclobutyl]pyrimidine-5-carboxamide] | ≥ 10.00 | > 9.00
CC(=O)N1CCc2c(c(-c3cccc4cc(-c5cnn(CC6CC7(C6)CN(c6ncc(C(=O)NC8C(C)(C)C(Oc9ccc(C#N)c(Cl)c9)C8(C)C)cn6)C7)c5)ncc34)nn2C)C1 (stereo not drawn) [Compound 224, 2-[6-[[4-[8-(5-acetyl-1-methyl-6,7-dihydro-4H-pyrazolo[4,3-c]pyridin-3-yl)-3-isoquinolyl]pyrazol-1-yl]methyl]-2-azaspiro[3.3]heptan-2-yl]-N-[3-(3-chloro-4-cyano-phenoxy)-2,2,4,4-tetramethyl-cyclobutyl]pyrimidine-5-carboxamide] | 9.00 to 10.00 | > 9.00
COc1cc(OC2C(C)(C)C(NC(=O)c3ccc(N4CCC(CN5CCC(n6nc(N7CCCc8cc(-c9cnn(C)c9)c(C(F)F)cc87)c7c6CCN(C(C)=O)C7)CC5)CC4)cc3)C2(C)C)ccc1C#N (stereo not drawn) [Compound 185, 4-[4-[[4-[5-acetyl-3-[7-(difluoromethyl)-6-(1-methylpyrazol-4-yl)-3,4-dihydro-2H-quinolin-1-yl]-6,7-dihydro-4H-pyrazolo[4,3-c]pyridin-1-yl]-1-piperidyl]methyl]-1-piperidyl]-N-[3-(4-cyano-3-methoxy-phenoxy)-2,2,4,4-tetramethyl-cyclobutyl]benzamide] | ≥ 10.00 | > 9.00
